Assay results as given in paper PMC7602804 (Nutrients, 2020).
Entries after “also recorded” stand apart in the source; their conditions may differ. Each block holds one compound with its values, some of them ahead of it. No end group written: not given here.

Columns and labels:
[1] = tested on: Caco-2 monolayer; assay: Passive permeability (Papp) of mannitol across Caco-2 monolayers, membrane integrity; assay type: in vitro ADME, human; conditions: D-[1-14C]-Mannitol 3.5 µM, 56.8 mCi/mmol, apical, with or without milk peptides; A-B; 2.5 h; HBSS + 10 mM HEPES; liquid scintillation counting; mean ± standard deviation of four or five inserts
Procedure: (§1) The Caco-2 cells used for transport studies were seeded in polyethylene terephthalate culture inserts, with a pore size of 0.4 μm and a growth area of 0.33 cm^2 at a density of approximately 25,000 cells/insert. The Caco-2 cells were grown for three weeks on the porous membrane before they were used for transepithelial transport. The integrity of the monolayers was confirmed by measuring the TEER using a Millicell ERS-2 volt ohmmeter. Only Caco-2 monolayers with TEER values above 400 Ω cm^2 were used for the transport analysis.
(§2) Following the TEER value measurement, the Caco-2 and PBEC monolayers were gently washed twice with phosphate-buffered saline, and the transport medium (Hanks’ Balanced Salt solution supplemented with 10 mM of HEPES) was added to the apical and basolateral compartments. […] Basolateral samples were mixed with Ultima Gold liquid scintillation fluid (Perkin Elmer) and counted in a Tri-Carb 2810 TR scintillation counter (Perkin Elmer). The apparent permeability coefficient (Papp, cm/s) was determined as Papp = (dQ/dt)/(AC0) where dQ/dt is the steady state flux (cpm/s), A is the surface area of the cell culture insert membrane and C0 is the initial concentration in the apical compartment (cpm/mL). […]

[2] = tested on: PBEC monolayer (BBB model); assay: Passive permeability (Papp) of mannitol across PBEC monolayers, membrane integrity; assay type: in vitro ADME, porcine; conditions: D-[1-14C]-Mannitol 3.5 µM, 56.8 mCi/mmol, apical, with or without milk peptides; A-B; 2.5 h; HBSS + 10 mM HEPES; liquid scintillation counting; mean ± standard deviation of four or five inserts
Procedure: PBECs were grown until 70–80% confluency as described above and then passaged onto polyester culture inserts with a pore size of 0.4 μm and a growth area of 1.12 cm^2 (Costar, Corning, NY, USA) at a density of 1.1 × 10^5 cells/cm^2 in the PBEC growth medium. In the basolateral chamber, the medium consisted of 1 mL of PBEC growth medium and 0.5 mL of astrocyte conditioned medium. The medium was supplemented with differentiation factors: 550 nM of hydrocortisone, 250 μM of 8-(4-chlorophenylthio)adenosine-3′,5′-cyclic monophosphate (cAMP) and 17.5 μM of RO-201724 two days after seeding. The next day, the integrity of the PBEC monolayer was confirmed by measuring the TEER. […]
as §2

[3] = tested on: porcine brain endothelial cell (PBEC) monolayers; assay: Apical to basolateral transport of milk peptides across porcine brain endothelial cell (PBEC) monolayers, blood-brain barrier model; assay type: in vitro ADME; conditions: primary PBEC on polyester inserts 0.4 μm, astrocyte conditioned medium, TEER higher than 800 Ω cm^2; A-B; mix of 192 milk peptides 0.1 mg/mL apical; HBSS + 10 mM HEPES; 2.5 h; LC-MS/MS; five independent studies; αS1 peptide 'or' its truncated peptides stated collectively
Procedure: Capillaries were isolated from the brain cortices of domestic pigs 5–6 months old as previously described. PBECs were cultured by plating the capillaries in T75 flasks coated with collagen IV (500 µg/mL) and fibronectin (100 µg/mL) in DMEM-F12 medium, supplemented with 10% plasma-derived serum (First Link, Wolverhampton, UK), heparin (15 U), 100 units/mL of penicillin and 100 µg/mL of streptomycin (PBEC growth medium), and cultured in an incubator with humidified 5% CO2/95% air at 37 °C. Puromycin (4 µg/mL) was added to the growth medium for the first three days to obtain a pure culture of PBECs.
Astrocyte conditioned medium was collected every third day from primary rat astrocytes, sterile filtered and frozen until use. Isolation of primary rat astrocytes and preparation of astrocyte conditioned media were carried out as described in [20].
PBECs were grown until 70–80% confluency as described above and then passaged onto polyester culture inserts with a pore size of 0.4 μm and a growth area of 1.12 cm^2 (Costar, Corning, NY, USA) at a density of 1.1 × 10^5 cells/cm^2 in the PBEC growth medium. In the basolateral chamber, the medium consisted of 1 mL of PBEC growth medium and 0.5 mL of astrocyte conditioned medium. The medium was supplemented with differentiation factors: 550 nM of hydrocortisone, 250 μM of 8-(4-chlorophenylthio)adenosine-3′,5′-cyclic monophosphate (cAMP) and 17.5 μM of RO-201724 two days after seeding. The next day, the integrity of the PBEC monolayer was confirmed by measuring the TEER. Only PBEC monolayers with TEER values higher than 800 Ω cm^2 were used for the transport analysis.
(§3) Following the TEER value measurement, the Caco-2 and PBEC monolayers were gently washed twice with phosphate-buffered saline, and the transport medium (Hanks’ Balanced Salt solution supplemented with 10 mM of HEPES) was added to the apical and basolateral compartments. The inserts were incubated for 15 min or 2.5 h with the purified milk peptides (0.1 mg/mL) or the synthetic PIGSENSEKTTMPLW peptide (2 µg/mL), after which medium from the apical and basolateral compartments were collected for liquid chromatography tandem mass spectrometry (LC-MS/MS) analysis. Inserts incubated with a medium without peptides served as the control in the transport experiments. Membrane integrity was validated by addition of D-[1-^14C]-Mannitol (3.5 µM, 56.8 mCi/mmol) (Perkin Elmer, Waltham, MA, USA) to the upper chamber of the culture inserts with or without milk peptides for 2.5 h. The passive permeability experiments were performed on four or five individual culture inserts. Basolateral samples were mixed with Ultima Gold liquid scintillation fluid (Perkin Elmer) and counted in a Tri-Carb 2810 TR scintillation counter (Perkin Elmer). The apparent permeability coefficient (Papp, cm/s) was determined as Papp = (dQ/dt)/(AC0) where dQ/dt is the steady state flux (cpm/s), A is the surface area of the cell culture insert membrane and C0 is the initial concentration in the apical compartment (cpm/mL).
LC-MS/MS analysis was performed on a TripleTOF 6600 mass spectrometer equipped with an Exigent nanoLC 415 system (AB Sciex, Les Ulis, France). All samples were micro-purified using 3 M Empore C18 discs packed in pipette tips. The lyophilized samples were dissolved in 0.1% formic acid, injected on a trap column (2 cm × 100 µm inner diameter) and separated on an analytical column packed in-house in a pulled emitter (15 cm × 75 µm inner diameter). All columns were packed with ReproSil-Pur C18-AQ 3 µm resin (courtesy of Dr. Marisch, Ammerbuch-Entringen, Germany). […]

[4] = tested on: Caco-2 monolayers; assay: Apical to basolateral transport of milk peptides across Caco-2 monolayers (LC-MS/MS of basolateral medium); assay type: in vitro ADME, human; conditions: Caco-2, 3 weeks on PET inserts 0.4 μm, TEER above 400 Ω cm^2; A-B; mix of 192 purified milk peptides 0.1 mg/mL apical; HBSS + 10 mM HEPES; 2.5 h; LC-MS/MS of basolateral medium; identified in two out of three experiments
Procedure: The human colorectal adenocarcinoma cell line, Caco-2, was obtained from DSMZ (Braunschweig, Germany). The cells were grown to 50–60% confluence in Dulbecco’s Modified Eagle Medium (DMEM) Glutamax cell culture medium, supplemented with 10% heat-inactivated fetal bovine serum, 100 units/mL of penicillin and 100 μg/mL of streptomycin (all from Invitrogen, Carlsbad, CA, USA) in a humidified 5% CO2/95% air atmosphere at 37 °C. The cells used in the experiments were between passages 30 and 40.
as §1, §3
LC-MS/MS analysis was performed on a TripleTOF 6600 mass spectrometer equipped with an Exigent nanoLC 415 system (AB Sciex, Les Ulis, France). All samples were micro-purified using 3 M Empore C18 discs packed in pipette tips. The lyophilized samples were dissolved in 0.1% formic acid, injected on a trap column (2 cm × 100 µm inner diameter) and separated on an analytical column packed in-house in a pulled emitter (15 cm × 75 µm inner diameter). All columns were packed with ReproSil-Pur C18-AQ 3 µm resin (courtesy of Dr. Marisch, Ammerbuch-Entringen, Germany). Peptides were eluted directly into the mass spectrometer with a linear gradient from 5 to 35% solvent B (0.1% formic acid in acetonitrile) for 20 min with a flowrate of 250 nL/min, followed after 10 min with 100% solvent B. Data files were converted to Mascot Generic Format using the Raw Converter (version 1.1.0.18) (http://fields.scripps.edu/rawconv/) or the AB Sciex MS Data Converter beta 1.1 (AB Sciex, Les Ulis, France). The generated peak lists were searched against the Bos taurus proteome (UniProt database, https://www.uniprot.org)) using an in-house Mascot search engine (Matrix Science, London, UK). The searches were made without specifying a protease and with oxidation (Met) and phosphorylation (ST) as variable modifications. Peptide tolerance was set to 10 ppm and MS/MS tolerance was set to 0.2 Da. […]

[5] = tested on: Caco-2 monolayers; parameters: method as in PMID 20397193, PMID 23561097; conditions: Caco-2 monolayer; cited from earlier work
[6] = tested on: angiotensin-converting enzyme (ACE); conditions: potential anti-hypertensive peptides; cited from earlier work
Description: The ACE-inhibitory ability is presumably mediated through the derived fragments TTMPLW and KTTMP [36, 37]. Thus, the transport of this peptide across physiological barriers could influence the regulation of arterial blood pressure. Furthermore, ACE is present in the brain and plays a key role in high salt induced sympatho-excitation, hypertension, neuroprotection, cognition and cerebr ...

[7] = tested on: pepsin from porcine gastric mucosa, then trypsin and chymotrypsin from a bovine pancreas and elastase; assay: purified milk peptide mix: pepsin in 0.15 M NaCl pH 2.5 (1:100 w/w), then trypsin, chymotrypsin (1:100 w/w) and elastase (1:500 w/w) in 50 mM ammonium bicarbonate pH 7.6; conditions: 37 °C, up to 60 min
[8] = primary porcine brain endothelial cell (PBEC) monolayers in culture inserts; transport medium (Hanks' Balanced Salt solution supplemented with 10 mM of HEPES); basolateral medium analysed; conditions: up to 2.5 h
[9] = Caco-2 monolayers in culture inserts; transport medium (Hanks' Balanced Salt solution supplemented with 10 mM of HEPES); basolateral medium analysed; conditions: human, up to 2.5 h
[10] = tested on: pepsin from porcine gastric mucosa, then trypsin and chymotrypsin from a bovine pancreas and elastase; assay: synthetic peptide: pepsin in 0.15 M NaCl pH 2.5 (1:100 w/w, 60 min), then trypsin, chymotrypsin (1:100 w/w) and elastase (1:500 w/w) in 50 mM ammonium bicarbonate pH 7.6; conditions: 37 °C, up to 270 min

Compound: OC[C@@H](O)[C@@H](O)[C@H](O)[C@H](O)CO [D-[1-^14C]-Mannitol]
Apparent permeability coefficient (Papp) of the Caco-2 monolayer [1]: 9.45 ± 2 × 10^−7 cm s^−1
Papp for the BBB (PBEC monolayer) [2]: 1.09 ± 0.14 × 10^−6 cm s^−1

Compound: EPVLGPVRGPFPIIV [EPVLGPVRGPFPIIV]
Peptide identified in the basal compartment (brain side) of the PBEC BBB model (transported) [3]: identified in the basal compartment of the BBB model
Peptide identified in the basolateral chamber of Caco-2 monolayers (transported) [4]: not transported across the Caco-2 monolayers
Crossing of in vitro intestinal barrier models in other studies [5]: shown to cross over in vitro intestinal barrier models

Peptide identified in the basal compartment (brain side) of the PBEC BBB model (transported) [3]: identified in all experiments
Compound: IGSENSEKTTMP [truncated derivative of the αS1-casein peptide …]
Inhibition of the activity of angiotensin-converting enzyme (ACE) [6]: can inhibit the activity of angiotensin-converting enzyme

Compound: PIGSENSEKTTMPLW
not cleaved [7]: peptide ion still observed after pepsin and pancreatic enzyme digestion
fragment found [8]: PIGSENSEKTTMP (Mox), 2.5 h; also recorded: PIGSENSEKTT, 2.5 h
fragment found [9]: PIGSENSEKTTMP (Mox), 2.5 h; also recorded: PIGSENSEKTT, 2.5 h
not cleaved [10]: ion corresponding to the peptide observed even after 270 min of digestion
